Reference: patent US7718673B2, “Isonipecotamides for the treatment of integrin-mediated disorders” (Ortho-McNeil Pharmaceutical, Inc., priority 1999, dated 2010)

Key:
Human αvβ3 = molecular target: T1, Human αvβ3 (Homo sapiens, UniProt P05106+P06756); assay: In vitro solid phase purified αvβ3 binding assay (vitronectin/αvβ3); settings: vitronectin binding to immobilized αvβ3; read-out: αvβ3 IC50
T1 construct: purchased Chemicon International Inc., Temecula, Calif
Protocol: In Vitro Solid Phase Purified αvβ3 Binding Assay
The vitronectin/αvβ3 binding assay methods were derived from Mehta et al. (Biochem J. 1998, 330, 861). Human αvβ3 (Chemicon International Inc., Temecula, Calif.), at a concentration of 1 μg/ml dissolved in Tris buffer (20 mM Tris, 1 mM CaCl2, […], 10 μM MnCl2, 150 mM NaCl), was immobilized on Immulon 96 well plates (Dynex Technologies, Chantilly, Va.) overnight at 4° C. Plates were washed and treated with blocking buffer (3% BSA in Tris buffer) for 2 h at 37° C. Plates were then rinsed 2 times with Tris buffer containing 0.3% BSA and 0.2% Tween20 (polyoxyethylenesorbitan monolaurate). Five minutes prior to the addition of 5 nM vitronectin (Sigma, St. Louis, Mo.), synthesized compounds were added to wells in duplicate. Each plate included c-RGDfV as an internal control. Following a 3 hour incubation at 37° C., plates were washed 5 times in assay buffer. An anti-human vitronectin IgG rabbit polyclonal antibody (Calbiochem, San Diego, Calif.) was added (1:2000) and plates were incubated for 1 hour at room temperature. VectaStain ABC peroxidase kit reagents (Vector Laboratories, Burlingame, Calif.) employing a biotin labeled anti-rabbit IgG, were utilized for detection of bound antibody. Plates were read at 490 nm on a Molecular Devices (Sunnyvale, Calif.) microplate reader.

[1] = molecular target: RGD-affinity purified GPIIb/IIIa (Homo sapiens, UniProt P05106+P08514); assay: In vitro solid phase purified GPIIb/IIIa binding assay (biotinylated fibrinogen); settings: fibrinogen binding to immobilized GPIIb/IIIa; read-out: IIb/IIIa IC50
Chain of RGD-affinity purified GPIIb/IIIa (P08514 32-887 limits assumed): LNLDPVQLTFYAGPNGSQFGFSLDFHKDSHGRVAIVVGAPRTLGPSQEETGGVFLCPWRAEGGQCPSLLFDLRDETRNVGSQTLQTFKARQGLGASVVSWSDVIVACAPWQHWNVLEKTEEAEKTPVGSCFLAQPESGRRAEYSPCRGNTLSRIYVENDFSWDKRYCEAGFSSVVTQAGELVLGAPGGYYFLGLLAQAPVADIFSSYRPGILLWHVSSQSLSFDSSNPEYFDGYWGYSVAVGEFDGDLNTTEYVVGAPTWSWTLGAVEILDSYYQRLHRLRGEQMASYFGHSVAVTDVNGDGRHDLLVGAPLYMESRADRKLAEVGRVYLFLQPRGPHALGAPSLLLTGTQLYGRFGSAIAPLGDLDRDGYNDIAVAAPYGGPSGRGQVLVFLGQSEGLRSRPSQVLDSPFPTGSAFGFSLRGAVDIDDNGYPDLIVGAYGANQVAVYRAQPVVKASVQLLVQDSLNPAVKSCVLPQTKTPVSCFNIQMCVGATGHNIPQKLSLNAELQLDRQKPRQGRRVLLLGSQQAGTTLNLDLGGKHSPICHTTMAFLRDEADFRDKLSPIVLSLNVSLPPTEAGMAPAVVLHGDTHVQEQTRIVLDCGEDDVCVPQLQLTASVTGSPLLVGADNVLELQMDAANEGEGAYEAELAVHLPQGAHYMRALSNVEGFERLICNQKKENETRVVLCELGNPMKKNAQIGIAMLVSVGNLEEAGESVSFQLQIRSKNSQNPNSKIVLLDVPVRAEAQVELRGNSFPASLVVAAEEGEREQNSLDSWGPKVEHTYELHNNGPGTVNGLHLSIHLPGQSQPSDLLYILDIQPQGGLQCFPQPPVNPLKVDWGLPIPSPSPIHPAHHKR
Chain of RGD-affinity purified GPIIb/IIIa (P08514 891-1039 partner limits assumed): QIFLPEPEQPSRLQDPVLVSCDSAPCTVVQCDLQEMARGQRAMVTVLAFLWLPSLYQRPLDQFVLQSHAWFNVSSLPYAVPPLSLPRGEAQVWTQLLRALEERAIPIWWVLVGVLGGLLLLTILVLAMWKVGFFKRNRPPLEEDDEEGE
Chain of RGD-affinity purified GPIIb/IIIa (P05106 27-788): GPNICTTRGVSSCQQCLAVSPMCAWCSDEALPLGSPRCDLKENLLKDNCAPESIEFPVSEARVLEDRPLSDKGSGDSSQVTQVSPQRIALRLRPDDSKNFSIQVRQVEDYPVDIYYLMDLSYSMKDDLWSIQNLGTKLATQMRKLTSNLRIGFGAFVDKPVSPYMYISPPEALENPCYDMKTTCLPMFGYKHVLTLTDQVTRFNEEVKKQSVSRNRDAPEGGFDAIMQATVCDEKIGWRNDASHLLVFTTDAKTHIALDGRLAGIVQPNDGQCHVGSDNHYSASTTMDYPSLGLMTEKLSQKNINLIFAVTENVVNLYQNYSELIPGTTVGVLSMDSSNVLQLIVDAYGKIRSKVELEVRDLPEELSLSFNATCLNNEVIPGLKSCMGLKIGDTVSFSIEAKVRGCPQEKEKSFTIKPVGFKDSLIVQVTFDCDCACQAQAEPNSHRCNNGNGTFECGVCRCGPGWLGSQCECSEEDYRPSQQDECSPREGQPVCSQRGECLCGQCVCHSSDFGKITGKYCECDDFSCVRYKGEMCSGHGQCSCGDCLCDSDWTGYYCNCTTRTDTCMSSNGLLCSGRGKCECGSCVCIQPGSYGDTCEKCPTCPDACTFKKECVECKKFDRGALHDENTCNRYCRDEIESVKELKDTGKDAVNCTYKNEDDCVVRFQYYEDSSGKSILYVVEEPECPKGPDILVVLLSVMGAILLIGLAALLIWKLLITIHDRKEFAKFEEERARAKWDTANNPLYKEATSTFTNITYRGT
Protocol: In Vitro Solid Phase Purified GP IIB/IIIA Binding Assay
The plate was covered and incubated overnight at 4° C. The GPIIb/IIIa solution was discarded and 150 μl of 5% BSA was added and incubated at RT for 1-3 h. The plate was washed extensively with modified Tyrodes buffer. Biotinylated fibrinogen (25 μl/well) at 2× final concentration was added to the wells that contain the test compounds (25 μl/well). The plate was covered and incubated at RT for 2-4 h. Twenty minutes prior to incubation completion, one drop of Reagent A (VectaStain ABC Horse Radish Peroxidase kit, Vector Laboratories, Inc.) and one drop Reagent B were added with mixing to 5 mL modified Tyrodes buffer mix and let stand. The ligand solution was discarded and the plate washed (5×200 μl/well) with modified Tyrodes buffer. Vecta Stain HRP-Biotin-Avidin reagent (50 μl/well, as prepared above) was added and incubated at RT for 15 min. The Vecta Stain solution was discarded and the wells washed (5×200 μl/well) with modified Tyrodes buffer. Developing buffer (10 mL of 50 mM citrate/phosphate buffer @ pH 5.3, 6 mg o-phenylenediamine, 6 μl 30% H2O2; 50 μl/well) was added and incubated at RT for 3-5 min, and then 2 NH2SO4 (50 μl/well) was added. The absorbance was read at 490 nm.

T1 sequence (P06756 31-889 limits assumed): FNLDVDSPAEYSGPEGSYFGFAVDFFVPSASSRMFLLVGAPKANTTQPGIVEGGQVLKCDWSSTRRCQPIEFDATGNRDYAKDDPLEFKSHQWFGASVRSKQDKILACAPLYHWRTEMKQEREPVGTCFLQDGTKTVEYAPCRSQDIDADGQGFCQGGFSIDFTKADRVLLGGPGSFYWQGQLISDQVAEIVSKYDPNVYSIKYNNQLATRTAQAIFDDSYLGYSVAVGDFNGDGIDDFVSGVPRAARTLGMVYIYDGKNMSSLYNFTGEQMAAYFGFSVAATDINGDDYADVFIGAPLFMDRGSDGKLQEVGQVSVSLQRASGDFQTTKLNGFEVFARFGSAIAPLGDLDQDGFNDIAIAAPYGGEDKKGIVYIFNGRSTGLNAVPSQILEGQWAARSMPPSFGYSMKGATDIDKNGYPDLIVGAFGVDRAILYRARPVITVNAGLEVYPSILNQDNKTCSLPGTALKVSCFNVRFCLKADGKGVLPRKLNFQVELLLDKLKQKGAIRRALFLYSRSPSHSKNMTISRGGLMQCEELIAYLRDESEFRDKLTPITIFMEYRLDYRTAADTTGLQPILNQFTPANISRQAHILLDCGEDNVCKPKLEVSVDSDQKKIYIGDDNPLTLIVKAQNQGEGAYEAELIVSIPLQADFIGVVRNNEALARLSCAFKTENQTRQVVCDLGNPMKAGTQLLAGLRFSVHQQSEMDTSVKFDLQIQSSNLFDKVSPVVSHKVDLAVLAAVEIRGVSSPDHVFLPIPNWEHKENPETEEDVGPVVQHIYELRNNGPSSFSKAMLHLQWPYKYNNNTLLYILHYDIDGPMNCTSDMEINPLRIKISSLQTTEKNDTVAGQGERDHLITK
T1 sequence (P06756 891-1048 partner limits assumed): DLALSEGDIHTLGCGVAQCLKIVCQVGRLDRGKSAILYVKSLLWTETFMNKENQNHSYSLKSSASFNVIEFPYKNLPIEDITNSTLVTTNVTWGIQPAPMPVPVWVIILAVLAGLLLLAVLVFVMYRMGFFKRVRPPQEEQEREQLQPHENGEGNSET
T1 sequence (P05106 27-788): as the sequence (P05106 27-788) above

| SMILES | IC50 (Human αvβ3) | IC50 [1] |
| --- | --- | --- |
| O=C(O)C[C@H](NC(=O)C1CCN(C(=O)CCCNC2=NCCN2)CC1)c1ccc(Cl)nc1 [Compound 3, 6-chloro-β-[[[1-[4-[(4,5-dihydro-1H-imidazol-2-yl)amino]-1-oxobutyl]-4-piperidinyl]carbonyl]amino]-, (β^3S)-3-pyridinepropanoic acid] | 28 nM | 130 nM |
| C[C@H](CC(=O)O)NC(=O)C1CCN(C(=O)CCCNC2=NCCN2)CC1 [Compound 4, 3-[[[1-[4-[(4,5-dihydro-1H-imidazol-2-yl)amino]-1-oxobutyl]-4-piperidinyl]carbonyl]amino]-, (3R)-butanoic acid] | 150 nM | 1700 nM |
| CC(CNC1=NCCN1)C(=O)N1CCC(C(=O)N[C@@H](CC(=O)O)c2cnc3ccccc3c2)CC1 (stereo partly drawn) [Compound 5, β-[[[1-[3-[(4,5-dihydro-1H-imidazol-2-yl)amino]-2-methyl-1-oxopropyl]-4-piperidinyl]carbonyl]amino]-, (β^3S)-3-quinolinepropanoic acid] | 15 nM | 23 nM |
| O=C(O)CC(NC(=O)C1CCN(C(=O)CCc2nc3ccccc3[nH]2)CC1)c1cnc2ccccc2c1 (stereo not shown) [Compound 7] | 490 nM | 7900 nM |
| O=C(N[C@@H](CNC(=O)C1CCN(C(=O)CCc2nc3ccccc3[nH]2)CC1)C(=O)O)OCc1ccccc1 [Compound 8] | 550 nM | 1100 nM |
| O=C(O)CC(NC(=O)C1CCN(C(=O)C2CCNCC2)CC1)c1cnc2ccccc2c1 (stereo not shown) [Compound 9] | 30000 nM | 300 nM |
| O=C(N[C@@H](CNC(=O)C1CCN(C(=O)NCCCn2ccnc2)CC1)C(=O)O)OCc1ccccc1 [Compound 10] | > 50000 nM | 950 nM |
| O=C(N[C@@H](CNC(=O)C1CCN(C(=O)C2CCN(C3=NCCN3)CC2)CC1)C(=O)O)OCc1ccccc1 [Compound 11, 3-[[[1-[[1-(4,5-dihydro-1H-imidazol-2-yl)-4-piperidinyl]carbonyl]-4-piperidinyl]carbonyl]amino]-N-[(phenylmethoxy)carbonyl]-L-alanine] | 1300 nM | 2.6 nM |
| O=C(N[C@@H](CNC(=O)C1CCN(C(=O)CCNC2=NCCN2)CC1)C(=O)O)OCc1ccccc1 [Compound 12] | 20 nM | 14 nM |
| O=C(O)CC(NC(=O)C1CCN(C(=O)CCc2nc3ccccc3[nH]2)CC1)c1ccc2c(c1)OCCO2 (stereo not shown) [Compound 13] | 10000 nM | 29000 nM |
| O=C(N[C@@H](CNC(=O)C1CCN(C(=O)[C@@H]2C=C[C@H](NC3=NCCN3)C2)CC1)C(=O)O)OCc1ccccc1 [Compound 14, 3-[[[1-[[(1S,4R)-4-[(4,5-dihydro-1H-imidazol-2-yl)amino]-2-cyclopenten-1-yl]carbonyl]-4-piperidinyl]carbonyl]amino]-N-[(phenylmethoxy)carbonyl]-L-alanine] | 50 nM | 9.2 nM |
| O=C(O)CC(NC(=O)C1CCN(C(=O)CCc2nc3ccccc3[nH]2)CC1)c1cccc2ccccc12 (stereo not shown) [Compound 15] | > 5000 nM | 17000 nM |
| O=C(N[C@@H](CNC(=O)C1CCN(C(=O)[C@H]2C=C[C@@H](NC3=NCCN3)C2)CC1)C(=O)O)OCc1ccccc1 [Compound 17, 3-[[[1-[[(1R,4S)-4-[(4,5-dihydro-1H-imidazol-2-yl)amino]-2-cyclopenten-1-yl]carbonyl]-4-piperidinyl]carbonyl]amino]-N-[(phenylmethoxy)carbonyl]-L-alanine] | 380 nM | 5.4 nM |
| O=C(N[C@@H](CNC(=O)C1CCN(C(=O)CC(CNC2=NCCN2)c2ccc(Cl)cc2)CC1)C(=O)O)OCc1ccccc1 (stereo partly shown) [Compound 18] | 50 nM | 15 nM |
| O=C(O)C[C@H](NC(=O)C1CCN(C(=O)CC2(CNC3=NCCN3)CCCCC2)CC1)c1ccc(Cl)nc1 [Compound 19] | 320 nM | 71 nM |
| O=C(O)CC(NC(=O)C1CCN(C(=O)CCCNC2=NCCN2)CC1)c1ccsc1 (stereo not shown) [Compound 20] | 530 nM | 4900 nM |
| O=C(O)CC(NC(=O)C1CCN(C(=O)CCCNC2=NCCN2)CC1)c1ccc2c(c1)OCO2 (stereo not shown) [Compound 21] | 23 nM | 410 nM |
| Cc1cccc(C(CC(=O)O)NC(=O)C2CCN(C(=O)CCCNC3=NCCN3)CC2)c1 (stereo not shown) [Compound 22] | > 500 nM | 38000 nM |

| SMILES | IC50 (Human αvβ3) | IC50 [1] |
| --- | --- | --- |
| O=C(O)CC(NC(=O)C1CCN(C(=O)CCCNC2=NCCN2)CC1)c1ccc2c(c1)CCO2 (stereo not shown) [Compound 23] | > 500 nM | 7300 nM |
| COc1cc(OC)cc(C(CC(=O)O)NC(=O)C2CCN(C(=O)CCCNC3=NCCN3)CC2)c1 (stereo not shown) [Compound 24] | 64 nM | 2200 nM |
| O=C(O)CC(NC(=O)C1CCN(C(=O)CCCNC2=NCCN2)CC1)c1cccnc1 (stereo not shown) [Compound 25] | 32 nM | 2900 nM |
| O=C(O)CC(NC(=O)C1CCN(C(=O)CCCNC2=NCCN2)CC1)c1cc(Cl)cc(Cl)c1 (stereo not shown) [Compound 26] | 120 nM | 1800 nM |
| O=C(O)CC(NC(=O)C1CCN(C(=O)CCCNC2=NCCN2)CC1)c1cccc(C(F)(F)F)c1 (stereo not shown) [Compound 27] | > 500 nM | 13000 nM |
| O=C(N[C@@H](CNC(=O)C1CCN(C(=O)OCCNC2=NCCN2)CC1)C(=O)O)OCc1ccccc1 [Compound 28, 4-[[[(2S)-2-carboxy-2-[[(phenylmethoxy)carbonyl]amino]ethyl]amino]carbonyl]-, 2-[(4,5-dihydro-1H-imidazol-2-yl)amino]ethyl ester 1-piperidinecarboxylic acid] | 8.2 nM | 1500 nM |
| O=C(O)CC(NC(=O)C1CCN(C(=O)OCCNC2=NCCN2)CC1)c1ccc2c(c1)OCO2 (stereo not shown) [Compound 29] | 34 nM | 210 nM |
| O=C(O)C[C@H](NC(=O)C1CCN(C(=O)CCCNc2ccccn2)CC1)c1cccnc1 [Compound 30] | 140 nM | 56000 nM |
| O=C(O)CC(NC(=O)C1CCN(C(=O)OCCNC2=NCCN2)CC1)c1cccnc1 (stereo not shown) [Compound 31] | 29 nM | 4200 nM |
| O=C(O)CC(NC(=O)C1CCN(C(=O)CCCNC2=NCCN2)CC1)c1cccc(F)c1 (stereo not shown) [Compound 32] | 120 nM | 3600 nM |
| O=C(O)C[C@H](NC(=O)C1CCN(C(=O)CCCNC2=NCCN2)CC1)c1cccnc1 [Compound 33] | 19 nM | 1800 nM |
| O=C(O)CC(NC(=O)C1CCN(C(=O)OCCNC2=NCCN2)CC1)c1cc(F)cc(F)c1 (stereo not shown) [Compound 35] | 140 nM | 1600 nM |
| O=C(O)CC(NC(=O)C1CCN(C(=O)CCCNC2=NCCN2)CC1)c1cccc2ccccc12 (stereo not shown) [Compound 36] | > 300 nM | 12000 nM |
| O=C(O)CC(NC(=O)C1CCN(C(=O)CCCNC2=NCCN2)CC1)c1ccc2ccccc2c1 (stereo not shown) [Compound 37] | 290 nM | 1700 nM |
| O=C(O)CC(NC(=O)C1CCN(C(=O)CCCNC2=NCCN2)CC1)c1cc(F)cc(F)c1 (stereo not shown) [Compound 38] | > 300 nM | 3300 nM |
| O=C(O)C[C@H](NC(=O)C1CCN(C(=O)OCCNC2=NCCN2)CC1)c1cnc2ccccc2c1 [Compound 39, β-[[[1-[[2-[(4,5-dihydro-1H-imidazol-2-yl)amino]ethoxy]carbonyl]-4-piperidinyl]carbonyl]amino]-, (β^3S)-3-quinolinepropanoic acid] | 2.3 nM | 36 nM |
| O=C(O)C[C@H](NC(=O)C1CCN(C(=O)OCCNC2=NCCN2)CC1)c1cccnc1 [Compound 40] | 12 nM | 1100 nM |
